Results reported in patent publication US10101324B2, “Non-competitive immunoassays to detect small molecules using nanopeptamers” (priority 2012, dated 2018).

Columns and labels:
[1] = tested on: anti-molinate monoclonal antibody (MoAb 14D7); assay: Cross-reactivity of the pA-Nanopeptamer noncompetitive ELISA with related thiocarbamate pesticides; assay type: binding
[2] = tested on: MoAb 14D7; conditions: molinate; same antibody MoAb 14D7; Rufo et al. 2004; cited from earlier work
[3] = tested on: MoAb 5.6; conditions: clomazone, Carlomagno et al. 2010; cited from earlier work

Compound	Cross reactivity, pA-Nanopeptamer assay [1] [%]	further results
CCCCN(CC)C(=O)SCCC [Pebulate]	6	–
CCN(CC)C(=O)SCc1ccc(Cl)cc1 [thiobencarb]	0	–
CCSC(=O)N1CCCCCC1 [Molinate]	–	IC50 of the competitive ELISA [2]: 0.069 ± 0.0005 µg/mL
CC1(C)CON(Cc2ccccc2Cl)C1=O [clomazone]	–	IC50 of the competitive format [3]: 0.028 ± 0.0011 µg/mL
